Square brackets hold non-standard residues; d marks the D form. Peptide text beside a SMILES is read from it. NMeF = CN[CH](Cc1ccccc1)C(=O)O
What was measured:
[1] = not given; remark: listed apart in the source
[2] = method code SF-HPLC, from DOI: 10.1016/j.ijpharm.2013.10.039, PMID: 24184034; conditions: pH 7.0
[3] = not given; remark: listed apart in the source
[4] = not given; remark: listed apart in the source
[5] = method code SF, from DOI: 10.1021/jm00079a001, PMID: 1732531; conditions: pH 7.4
[6] = not given; remark: listed apart in the source
[7] = method code SF-AS, from DOI: 10.1016/j.ejmech.2009.02.028, PMID: 19321234
[8] = pH 6.5
[9] = method code SF-AS, from DOI: 10.1016/s0026-895x(25)13330-0, PMID: 3162758; conditions: pH 4.5
[10] = method code SF-HPLC, from DOI: 10.1016/0378-5173(91)90200-8; conditions: pH 7.4
[11] = method code SF-HPLC, from DOI: 10.1002/jps.2600830805, PMID: 7983590; conditions: pH 12.2
[12] = method code SF-AS, from DOI: 10.1016/s0960-894x(99)00527-2, PMID: 10571171; conditions: pH 7.0
[13] = method code SF-AS, from DOI: 10.1016/j.ejmech.2010.02.047, PMID: 20227799; conditions: pH 7.4
[14] = method code SF, from DOI: 10.1021/jm00262a020, PMID: 4716184
[15] = method code SF-FL, from DOI: 10.1021/acs.jmedchem.5b00420, PMID: 26263187
[16] = method code SF-RC, from DOI: 10.1021/jm00392a008, PMID: 3625705
[17] = not given; remark: listed apart in the source
[18] = not given; remark: listed apart in the source
[19] = method code SF-AS, from DOI: 10.1111/j.1476-5381.1987.tb08980.x, PMID: 3036289; conditions: pH 7.4
[20] = pH 6.5; remark: listed apart in the source
[21] = method code SF, from DOI: 10.1021/jm00088a007, PMID: 1588555; conditions: pH 7.4
[22] = method code SF-HPLC, from DOI: 10.1021/js9504200, PMID: 8742941; conditions: pH 7.4
[23] = method code SF-HPLC, from DOI: 10.1248/cpb.38.1906, PMID: 2268893; conditions: pH 6.9
[24] = method code SF-HPLC, from DOI: 10.1002/jccs.199500138
[25] = not given; remark: listed apart in the source
[26] = method code SF-AS, from DOI: 10.1021/jm00371a014, PMID: 6716401; conditions: pH 7.4
[27] = method code SF, from DOI: 10.3139/113.110173
[28] = method code SF-RC, from DOI: 10.1023/a:1015867608405, PMID: 1614980; conditions: pH 7.4
[29] = method code SF, from Moerlein, M.; Dischino, D.; Raymond, N.; Weitl, L.; Welch, J. (1982). Factors affecting the cerebral uptake of gallium complexes. J Labelled Comp Radiopharm, 19(11-12)1421-1422.; conditions: pH 7.0
[30] = method code SF-HPLC, from DOI: 10.1023/a:1016059008464, PMID: 8899834

`CCCN(CCC)C(=O)Cc1c(-c2ccc(OC(=O)NCCc3ccc(O)c(O)c3)cc2)nc2c(Cl)cc(Cl)cn12` gave a logP of 4.79.
Compound `Cc1ccccc1NC(=O)Nc1ccc(CC(=O)N[C@@H](CCCCNC(=O)/C=C/c2cccnc2)C(=O)N[C@@H](CCCC(=O)O)C(=O)NC2(C(N)=O)CCCCC2)cc1` has a logP [1] of 3.26.
With `CC(=O)O[C@@H]1C(=O)[C@]23C[C@H]2C[C@H]2OC[C@@]2(OC(C)=O)[C@H]3[C@H](OC(=O)c2ccccc2)[C@]2(O)C[C@H](OC(=O)[C@H](O)[C@@H](NC(=O)OC(C)(C)C)c3ccccc3)C(C)=C1C2(C)C` the logD [2] was 2.06.
Compound `Nc1cccc(CN2C(=O)N(c3cccc(C(=O)Nc4cnccn4)c3)C(Cc3ccccc3)C(O)C(O)C2Cc2ccccc2)c1` (stereo unspecified) has a logP [3] of 3.77.
`COc1cc(C)c(S(=O)(=O)NC(CC(=O)NC2OC(CO)C(O)C(O)C2NC(C)=O)C(=O)NC(Cc2ccc(C(=N)N)cc2)C(=O)N2CCCCC2)c(C)c1C` (stereo unspecified) showed a logP [4] of -1.5.
`C=CC[C@H](NC(=O)[C@@H](Cc1ccccc1)NS(=O)(=O)N1CCN(C)CC1)C(=O)NC(CC1CCCCC1)C(=O)C(F)(F)C(=O)NCCN1CCOCC1` (stereo partly specified) gave a logD [5] of 2.73.
In the case of `CC(C)Cc1ccc(C(Nc2cccc(C(=O)c3cn(CCCC(=O)O)c4ccccc34)c2)c2ccc(CC(C)C)cc2)cc1`, the logP [6] was 3.
For `CCCCCCCCCCCCCC(=O)NC(C(=O)Nc1ccn(C2OC(CO)C(O)C2O)c(=O)n1)c1ccc(O)cc1` (stereo unspecified), the logP [7] was 0.9.
Work on `CCN1CC(C(O)C(CC2CCCCC2)NC(=O)C(Cc2cc[nH]n2)NC(=O)C(CC(=O)N2CCOCC2)Cc2ccccc2)OC1=O` (stereo unspecified) yielded a logD [8] of 2.52.
With `COc1cc([C@@H]2c3cc4c(cc3[C@@H](O[C@@H]3O[C@@H]5CO[C@@H](c6cccs6)O[C@H]5[C@H](O)[C@H]3O)[C@H]3COC(=O)[C@H]23)OCO4)cc(OC)c1O` the logD [9] was 1.8.
With `CCC(C(=O)OCc1ccc(COC(=O)C(CC)C(COC(=O)C2CC2)Cc2cncn2C)cc1)C(COC(=O)C1CC1)Cc1cncn1C` (stereo unspecified) the logD [10] was 4.2.
`CCCCC(NC(C)=O)C(=O)NC1NCCCCC(C(N)=O)NC(=O)C(Cc2c[nH]c3ccccc23)NC(=O)C(CCCC(=N)N)NC(=O)C(Cc2ccccc2)NC(=O)C(Cc2cnc[nH]2)NC1=O` (stereo unspecified) showed a logD [11] of 1.1.
In the case of `O=C(NCCCC(CO)(CCCNC(=O)c1ccc2cccnc2c1O)CCCNC(=O)c1ccc2cccnc2c1O)c1ccc2cccnc2c1O`, the logD [12] was 1.2.
`COc1ccc(-c2oc3cc(C(C)=O)cc(OC)c3c(=O)c2-c2ccc(-c3ccccc3)cc2)cc1OC` showed a logD [13] of 3.95.
For `CC[C@@H](C(=O)[C@@H](C)[C@@H](O)[C@H](C)CCc1ccc(C)c(O)c1C(=O)O)[C@H]1O[C@](CC)([C@H]2CC[C@](O)(CC)[C@H](C)O2)C[C@@H]1C`, the logP [14] was 2.85.
In the case of `COc1cccc2c1C(=O)c1c(O)c3c(c(O)c1C2=O)CC(O)(C(=O)CO)CC3OC1CC(NC(=O)C2CCC(CN3C(=O)CC(SCCN)C3=O)CC2)C(O)C(C)O1` (stereo unspecified), the logP [15] was -0.02.
Compound `CC/C=C\C/C=C\C/C=C\CCCCCCCC(=O)OCC(COC(=O)CCCN)OC(=O)CCCN` (stereo unspecified) has a logP [16] of 0.33.
`COC1C(OC(C)=O)CC(=O)OC(C)CC=CC=CC(O)C(C)CC(CC=O)C1OC1OC(C)C(OC2C[C@@](C)(O)C(OC(=O)CC(C)C)C(C)O2)C(N(C)C)C1O` (stereo partly specified) showed a logP [17] of 2.39.
`CCOc1ccc(N2CCN(CC(O)CC(Cc3ccccc3)C(=O)NC3c4ccccc4CC3O)C(C(=O)NC(C)(C)C)C2)cn1` (stereo unspecified) gave a logP [18] of 3.62.
For `C[C@@H]1O[C@@H](O[C@H]2C[C@@H](O)[C@]3(CO)[C@H]4[C@H](O)C[C@]5(C)[C@@H]([C@@H]6COC(=O)C6)CC[C@]5(O)[C@@H]4CC[C@]3(O)C2)[C@H](O)[C@H](O)[C@H]1O`, the logD [19] was -0.7.
For `CCCCC(OC(Cc1ccccc1)C(=O)N1CCC(OCOC)CC1)C(=O)NC(CC1CCCCC1)C(O)CC(C(=O)NCc1nn[nH]n1)C(C)C` (stereo unspecified), the logD [20] was 2.9.
In the case of `CCCC[C@H](O[C@@H](Cc1ccccc1)C(=O)N1CCC(OCOC)CC1)C(=O)NC(CC1CCCCC1)C(O)CC(C(=O)NCCCN1CCOCC1)C(C)C` (stereo partly specified), the logD [21] was 4.3.
With `O=C(OCCCCCC1CCSS1)c1cc(=O)c2c(OCC(O)COc3cccc4oc(C(=O)OCCCCCC5CCSS5)cc(=O)c34)cccc2o1` (stereo unspecified) the logD [22] was 2.87.
For `CCOC(=O)OCCC(SC(=O)OCC)=C(C)N(C=O)CC1=C(C(=O)OCOC(=O)C(C)(C)C)N2C(=O)C(NC(=O)C(=NOC)c3csc(N)n3)C2SC1` (stereo unspecified), the logD [23] was 3.34.
In the case of `CC(=O)O[C@@H]1CC[C@]2(C)C3=CC[C@]4(C)[C@@H]([C@H](C)CC/C=C(\C)C(=O)O)C[C@@H](OC(C)=O)[C@@]4(C)C3=CC[C@H]2C1(C)C`, the logP [24] was 2.74.
For `Cc1c(O)cccc1C(=O)N[C@@H](CSc1ccccc1)[C@H](O)CN1C[C@H]2CCCC[C@H]2C[C@H]1C(=O)NC(C)(C)C`, the logP [25] was 4.
Work on `COc1cccc2c1C(=O)c1c(O)c3c(c(O)c1C2=O)CC(O)(C(C)=O)CC3OC1CC(N2CCOCC2C#N)C(O)C(C)O1` (stereo unspecified) yielded a logD [26] of 2.59.
In the case of `CCCCCCCCCCCOCCOCCOCCOCCOCCOCCOCCOCCOCCOCCOCCOCCOCCOCCOCCOCCOCCOCCOCCOCCOCCOCCOCCOCCOCCOCCOCCOCCO`, the logP [27] was 0.31.
Compound `CC(=O)NC(Cc1ccccc1)C(=O)N(C)C(Cc1ccccc1)C(=O)N(C)C(Cc1ccccc1)C(N)=O` (stereo unspecified) (Ac-Phe-[NMeF]-[NMeF]-NH2; configuration not given here) has a logD [28] of 2.53.
`CCCCCCN(CCCCN(CCCN(CCCCCC)C(=O)c1cccc(O)c1O)C(=O)c1cccc(O)c1O)C(=O)c1cccc(O)c1O` showed a logD [29] of -1.52.
`CC(C)CCC[C@@H](C)[C@H]1CC[C@H]2[C@@H]3CC[C@H]4C[C@@H](CCC=C(c5cc(Cl)c(O)c(C(=O)O)c5)c5cc(Cl)c(O)c(C(=O)O)c5)CC[C@]4(C)[C@H]3CC[C@]12C` showed a logP [30] of 6.94.

— the SangsterLogP compilation
